Measured values published in paper PMC6384738, “Structure-Function Studies of Polymyxin B Lipononapeptides” (Molecules, 2019).
Converted amounts (≈) assume the structure as drawn. Where a SMILES comes first, the peptide text is derived from it. Bridges are numbered along the chain shown (N, C = ends). [ ]: non-standard residue; d: D form. The star is where a group is joined. Butanoyl(4-OPh) = O=C(CCCOc1ccccc1)*; dDab = NCC[C@@H](N)C(=O)O; Octanoyl = CCCCCCCC(=O)*; Dab = NCC[C@H](N)C(=O)O

How the values were obtained:
A. baumannii ATCC 19606 = test: microbe, parasite or virus in culture; settings: for MIC A. baumannii ATCC 19606: ATCC 19606, 18 h
Procedure, shortened: (§1)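 MIC (mg/L) by broth microdilution against antibiotic-sensitive and resistant ATCC reference strains. Polymyxin B, colistin, vancomycin and gentamicin served as comparators.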

E. coli ATCC 25922 = test: microbe, parasite or virus in culture; settings: for MIC E. coli ATCC 25922: ATCC 25922, 18 h
Procedure, shortened: as §1

K. pneumoniae ATCC 13833 = test: microbe, parasite or virus in culture; settings: for MIC K. pneumoniae ATCC 13833: ATCC 13833, 18 h
Procedure, shortened: as §1

[1] = system: K. pneumoniae ATCC 700603; test: microbe, parasite or virus in culture; settings: for MIC K. pneumoniae ATCC 700603: ATCC 700603, 18 h
Procedure, shortened: as §1

K. pneumoniae BAA 2146 = test: microbe, parasite or virus in culture; settings: for MIC K. pneumoniae BAA 2146: BAA 2146, 18 h
Procedure, shortened: as §1

P. aeruginosa ATTC 27853 = test: microbe, parasite or virus in culture; settings: for MIC P. aeruginosa ATTC 27853: ATTC 27853, 18 h
Procedure, shortened: as §1

[2] = system: P. aeruginosa FADDI PA070; test: microbe, parasite or virus in culture; settings: for MIC P. aeruginosa FADDI PA070: FADDI PA070, 18 h
Procedure, shortened: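 Values are minimum inhibitory concentrations in mg/L, obtained by serial dilution of compound in broth with the bacterial strain. Polymyxin B, colistin, vancomycin and gentamicin were run alongside as reference antibacterials.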

S. aureus ATCC 25923 = test: microbe, parasite or virus in culture; settings: for MIC S. aureus ATCC 25923: ATCC 25923, 18 h
Procedure, shortened: as §1

in vitro = settings: human
Procedure, shortened: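 HK-2 cells seeded 2000 cells/well in DMEM/F12 with 10% FBS, grown 24 h, then exposed to compounds (300 µM to 2.3 µM, 2-fold series; colistin/polymyxin B 1 mM to 7.8 µM) for 24 h at 37 °C. LDH in medium read at 450 nm after 30 min; cytotoxicity % relative to 1% Triton X-100 and untreated cells.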

## CCCCCCCC(=O)N[C@@H](CCC(=O)O)C(=O)N[C@H](CCN)C(=O)N[C@H]1CCNC(=O)[C@H]([C@@H](C)O)NC(=O)[C@H](CCN)NC(=O)[C@H](CCN)NC(=O)[C@H](CC(C)C)NC(=O)[C@@H](Cc2ccccc2)NC(=O)[C@H](CCN)NC1=O [Compound 32] (Octanoyl-E[dDab][Dab][Dab][dF]L[Dab][Dab]T; lactam 3-C)
A. baumannii ATCC 19606
  MIC A. baumannii ATCC 19606: >32 µg/mL
E. coli ATCC 25922
  MIC E. coli ATCC 25922: >32 µg/mL
K. pneumoniae ATCC 13833
  MIC K. pneumoniae ATCC 13833: >32 µg/mL
[1]
  MIC K. pneumoniae ATCC 700603: 32 µg/mL (≈ 28.6 µM)
K. pneumoniae BAA 2146
  MIC K. pneumoniae BAA 2146: >32 µg/mL
P. aeruginosa ATTC 27853
  MIC P. aeruginosa ATTC 27853: 4 µg/mL (≈ 3.58 µM)
[2]
  MIC P. aeruginosa FADDI PA070: >32 µg/mL
S. aureus ATCC 25923
  MIC S. aureus ATCC 25923: >32 µg/mL
In vitro
  CC50 at 24 h: > 300 µM

## CCCCCCCC(=O)N[C@@H](Cc1ccc(O)cc1)C(=O)N[C@H](CCN)C(=O)N[C@H]1CCNC(=O)[C@H]([C@@H](C)O)NC(=O)[C@H](CCN)NC(=O)[C@H](CCN)NC(=O)[C@H](CC(C)C)NC(=O)[C@@H](Cc2ccccc2)NC(=O)[C@H](CCN)NC1=O [Compound 29] (Octanoyl-Y[dDab][Dab][Dab][dF]L[Dab][Dab]T; lactam 3-C)
A. baumannii ATCC 19606
  MIC A. baumannii ATCC 19606: >32 µg/mL
E. coli ATCC 25922
  MIC E. coli ATCC 25922: 16 µg/mL (≈ 13.9 µM)
K. pneumoniae ATCC 13833
  MIC K. pneumoniae ATCC 13833: >32 µg/mL
[1]
  MIC K. pneumoniae ATCC 700603: 16 µg/mL (≈ 13.9 µM)
K. pneumoniae BAA 2146
  MIC K. pneumoniae BAA 2146: >32 µg/mL
P. aeruginosa ATTC 27853
  MIC P. aeruginosa ATTC 27853: 4 µg/mL (≈ 3.47 µM)
[2]
  MIC P. aeruginosa FADDI PA070: 8 µg/mL (≈ 6.95 µM)
S. aureus ATCC 25923
  MIC S. aureus ATCC 25923: >32 µg/mL
In vitro
  CC50 at 24 h: > 300 µM

## CC(C)C[C@@H]1NC(=O)[C@@H](Cc2ccccc2)NC(=O)[C@H](CCN)NC(=O)[C@@H](NC(=O)[C@@H](CCN)NC(=O)[C@@H](NC(=O)CCCOc2ccccc2)[C@@H](C)O)CCNC(=O)[C@H]([C@@H](C)O)NC(=O)[C@H](CCN)NC(=O)[C@H](CCN)NC1=O [Compound 26] ({Butanoyl(4-OPh)}-T[dDab][Dab][Dab][dF]L[Dab][Dab]T; lactam 3-C)
A. baumannii ATCC 19606
  MIC A. baumannii ATCC 19606: 16 µg/mL (≈ 14.2 µM)
E. coli ATCC 25922
  MIC E. coli ATCC 25922: 1 µg/mL (≈ 0.889 µM)
K. pneumoniae ATCC 13833
  MIC K. pneumoniae ATCC 13833: 4 µg/mL (≈ 3.55 µM)
[1]
  MIC K. pneumoniae ATCC 700603: 1 µg/mL (≈ 0.889 µM)
K. pneumoniae BAA 2146
  MIC K. pneumoniae BAA 2146: 1 µg/mL (≈ 0.889 µM)
P. aeruginosa ATTC 27853
  MIC P. aeruginosa ATTC 27853: 2 µg/mL (≈ 1.78 µM)
[2]
  MIC P. aeruginosa FADDI PA070: >32 µg/mL
S. aureus ATCC 25923
  MIC S. aureus ATCC 25923: >32 µg/mL
In vitro
  CC50 at 24 h: > 300 µM

## CN[C@H](CC(C)C)C(=O)N[C@H]1C(=O)N[C@@H](CC(N)=O)C(=O)N[C@H]2C(=O)N[C@H]3C(=O)N[C@H](C(=O)N[C@H](C(=O)O)c4cc(O)cc(O)c4-c4cc3ccc4O)[C@H](O)c3ccc(c(Cl)c3)Oc3cc2cc(c3O[C@@H]2O[C@H](CO)[C@@H](O)[C@H](O)[C@H]2O[C@H]2C[C@](C)(N)[C@H](O)[C@H](C)O2)Oc2ccc(cc2Cl)[C@H]1O [Vanc, vancomycin, reference compound]
A. baumannii ATCC 19606; Acinetobacter baumannii, ATCC19606, 18 h, read-out: MIC A. baumannii ATCC 19606
  MIC: > 32 µg/mL
E. coli ATCC 25922; Escherichia coli, ATCC25922, 18 h, read-out: MIC E. coli ATCC 25922
  MIC: > 32 µg/mL
K. pneumoniae ATCC 13833; Klebsiella pneumoniae, ATCC13833, 18 h, read-out: MIC K. pneumoniae ATCC 13833
  MIC: > 32 µg/mL
[1]; Klebsiella pneumoniae, ATCC700603, 18 h, read-out: MIC K. pneumoniae ATCC 700603
  MIC: > 32 µg/mL
K. pneumoniae BAA 2146; Klebsiella pneumoniae, BAA2146, 18 h, read-out: MIC K. pneumoniae BAA 2146
  MIC: > 32 µg/mL
P. aeruginosa ATTC 27853; Pseudomonas aeruginosa, ATTC27853, 18 h, read-out: MIC P. aeruginosa ATTC 27853
  MIC: > 32 µg/mL
[2]; Pseudomonas aeruginosa, FADDIPA070, 18 h, read-out: MIC P. aeruginosa FADDI PA070
  MIC: > 32 µg/mL
S. aureus ATCC 25923; Staphylococcus aureus, ATCC25923, 18 h, read-out: MIC S. aureus ATCC 25923
  MIC: 2 µg/mL (≈ 1.38 µM)
In vitro
  CC50 at 24 h: > 300 µM

## CCCCCCCC(=O)N[C@@H](CC(N)=O)C(=O)N[C@H](CCN)C(=O)N[C@H]1CCNC(=O)[C@H]([C@@H](C)O)NC(=O)[C@H](CCN)NC(=O)[C@H](CCN)NC(=O)[C@H](CC(C)C)NC(=O)[C@@H](Cc2ccccc2)NC(=O)[C@H](CCN)NC1=O [Compound 28] (Octanoyl-N[dDab][Dab][Dab][dF]L[Dab][Dab]T; lactam 3-C)
A. baumannii ATCC 19606
  MIC A. baumannii ATCC 19606: >32 µg/mL
E. coli ATCC 25922
  MIC E. coli ATCC 25922: 32 µg/mL (≈ 29 µM)
K. pneumoniae ATCC 13833
  MIC K. pneumoniae ATCC 13833: >32 µg/mL
[1]
  MIC K. pneumoniae ATCC 700603: >32 µg/mL
K. pneumoniae BAA 2146
  MIC K. pneumoniae BAA 2146: >32 µg/mL
P. aeruginosa ATTC 27853
  MIC P. aeruginosa ATTC 27853: 4 µg/mL (≈ 3.63 µM)
[2]
  MIC P. aeruginosa FADDI PA070: 8 µg/mL (≈ 7.26 µM)
S. aureus ATCC 25923
  MIC S. aureus ATCC 25923: >32 µg/mL
In vitro
  CC50 at 24 h: > 300 µM
